Measured values from ChEMBL document CHEMBL5725316, “Substituted imidazo[1,2-a]pyrazines as LSD1 inhibitors” (2017).
pIC50: −log10 of the molar value.

Target: Lysine-specific histone demethylase 1A (Homo sapiens, UniProt O60341)
Assay: LANCE LSD1/KDM1A Demethylase Assay: 10 μL of 1 nM LSD-1 enzyme (ENZO BML-SE544-0050) in the assay buffer (50 mM Tris, pH 7.5, 0.01% Tween-20, 25 mM NaCl, 5 mM DTT) were preincubated for 1 hour at 25° C. with 0.8 μL compound/DMSO dotted in black 384 well polystyrene plates. Reactions were started by addition of 10 μL of assay buffer containing […] Biotin-labeled Histone H3 peptide substrate: ART-K(Me1)-QTARKSTGGKAPRKQLA-GGK(Biotin) SEQ ID NO:1 (AnaSpec 64355) and incubated for 1 hour at 25° C. Reactions were stopped by addition of 10 μL 1× LANCE Detection Buffer (PerkinElmer CR97-100) supplemented with 1.5 nM Eu-anti-unmodified H3K4 Antibody (PerkinElmer TRF0404), and 225 nM LANCE Ultra Streptavidin (PerkinElmer TRF102) along with 0.9 mM Tranylcypromine-HCl (Millipore 616431). After stopping the reactions plates were incubated for 30 minutes and read on a PHERAstar FS plate reader (BMG Labtech).

`COC(=O)N(C)c1cc(-c2c(-c3ccc(C#N)cc3)nc(OC[C@@H]3CCCN(C)C3)c3nccn23)ccc1C` showed a pIC50 of over 7.30.
